Test results as given in ChEMBL document CHEMBL2069186, “Getting the MAX out of Computational Models: The Prediction of Unbound-Brain and Unbound-Plasma Maximum Concentrations” (ACS Med Chem Lett, 2012).

Columns and labels:
Plasma = assay: Dose normalized fCmax in C57BL/6J mouse plasma at 10 mg/kg, po; assay type: ADME, organism-based; design: dose 10 mg/kg, route oral; details: in vivo
Brain = assay: Dose normalized fCmax in C57BL/6J mouse brain at 10 mg/kg, po; assay type: ADME, organism-based; design: dose 10 mg/kg, route oral; details: in vivo

fCmax/dose (Plasma): 180 nM | fCmax/dose (Brain): 88 nM
Compound: Nc1ncnc2c1c(COc1cccc(Cl)c1)nn2C1CCOCC1
